In one data set the test system is Tagia sp. As to conditions: acute; duration: 14 days; mortality.
Another data set deals with Pimephales promelas. As to conditions: chronic/long-term; duration: 28 days; growth.
The subject of a further data set is Oncorhynchus mykiss. Conditions: acute; duration: 96 hours; mortality.
The subject of a further data set is Daphnia magna. Conditions: chronic/long-term; duration: 21 days; reproduction.
For a further data set, the system named is Apis mellifera. As to conditions: acute; duration: 48 hours; oral; unspecified; mortality.
Another data set deals with Colinus virginianus. Conditions: acute, oral, mortality.
Another data set concerns Landoltia sp. Conditions: acute; duration: 14 days; growth.
A further data set deals with Anas platyrhynchos. As to conditions: acute; oral; unspecified; mortality.
For a further data set, the system named is Typhlodromus pyri. As to the kind of experiment: LR50; higher = less toxic. As to conditions: acute; duration: 48 hours; reproduction.
The test system of the next data set is Aphidius rhopalosiphi. Nature of the data set: LR50; higher = less toxic. As to conditions: acute; duration: 7 days; reproduction.

Converted amounts (≈) assume the structure as drawn. “And” between values parts separate entries of the source, which are not always exact repeats. Equal values may be shown once. A value given as a limit tells only on which side of the number the result lay.

One may read the NOAEL as the highest tested level that showed no adverse finding. For `CN(C)C(=O)Nc1cccc(C(F)(F)F)c1` [Fluometuron], the LC50 in the data set on Tagia sp. was 1000 mg/kg; with Oncorhynchus mykiss it was 30 µg/mL (≈ 129 µM); in the data set on Colinus virginianus (diet) it was > 1600 mg/kg and 4310 mg/kg. The NOEC in the data set with Pimephales promelas was found to be 3.1 mg/L; with Daphnia magna, 6.6 mg/L; with Landoltia sp., 0.185 mg/L. Moreover, the LD50 in the data set with Apis mellifera is greater than 34 µg/piece; in the data set on Rattus norvegicus (acute, oral, mortality), greater than 5000 mg/kg; with Colinus virginianus, greater than 2150 mg/kg; with Anas platyrhynchos, 2970 mg/kg. In addition, the NOAEL with Rattus norvegicus (chronic, duration: 104 weeks, hematological) was 0.553 mg/kg-day; with Rattus norvegicus (reproduction developmental, other), 0.8 mg/kg-day. In the data set with Rattus norvegicus (developmental, development), this compound registered an NOEL of 24 mg/kg-day. In addition, the LR50 in the data set with Typhlodromus pyri turned out to be 28.9 g/ha; with Aphidius rhopalosiphi, 398 g/ha.

The values above are taken from EPA's ToxValDB 9.5 (doi:10.2903/j.efsa.2011.1958).
